Reference: ChEMBL document CHEMBL3885881, “DrugMatrix”

Organism: Rattus norvegicus
Test: DrugMatrix - Regimen: Daily Repeat
Type: toxicity, organism-based, Sprague-Dawley
Parameters: regimen Daily Repeat, gender Male, age 6-8 weeks
Conditions: in vivo, po, route oral GAVAGE, vehicle 100 % WATER; for ABSOLUTE BASOPHIL / ABSOLUTE EOSINOPHIL / ABSOLUTE LYMPHOCYTE / ABSOLUTE MONOCYTE / ABSOLUTE SEGMENTED NEUTROPHIL / BASOPHIL / EOSINOPHIL / ERYTHROCYTE COUNT / HEMATOCRIT / HEMOGLOBIN / LEUKOCYTE COUNT / LYMPHOCYTE / MEAN CORPUSCULAR HEMOGLOBIN / MEAN CORPUSCULAR HEMOGLOBIN CONCENTRATION / MEAN CORPUSCULAR VOLUME / MONOCYTE / NEUTROPHIL / NUCLEATED RED BLOOD CELLS / PLATELET COUNT: tissue Blood; for ALANINE AMINOTRANSFERASE / ALBUMIN / ALKALINE PHOSPHATASE / ASPARTATE AMINOTRANSFERASE / BLOOD UREA NITROGEN / CARBON DIOXIDE / CHLORIDE / CHOLESTEROL / CREATINE PHOSPHOKINASE / CREATININE / GLUCOSE / LACTATE DEHYDROGENASE / LIPASE / PHOSPHORUS / POTASSIUM / SODIUM / TOTAL BILIRUBIN / TOTAL PROTEIN / URIC ACID: tissue Plasma
[1] = 0 mg/kg, 72 h, dose level Control, time 3 day
[2] = 0 mg/kg, 120 h, dose level Control, time 5 day
[3] = 45 mg/kg, 72 h, dose level Low, time 3 day
[4] = 45 mg/kg, 120 h, dose level Low, time 5 day

CCOC(N)=O
ABSOLUTE BASOPHIL [1]: 0 CELLS/uL
ABSOLUTE EOSINOPHIL [1]: 123.17 CELLS/uL
ABSOLUTE LYMPHOCYTE [1]: 12677.83 CELLS/uL
ABSOLUTE MONOCYTE [1]: 66.17 CELLS/uL
ABSOLUTE SEGMENTED NEUTROPHIL [1]: 1149.5 CELLS/uL
BASOPHIL [1]: 0%
EOSINOPHIL [1]: 0.83%
ERYTHROCYTE COUNT [1]: 5.26 x10E6/uL
HEMATOCRIT [1]: 33.07%
HEMOGLOBIN [1]: 13.43 G/DL
LEUKOCYTE COUNT [1]: 14.02 x10E3/uL
LYMPHOCYTE [1]: 90.17%
MEAN CORPUSCULAR HEMOGLOBIN [1]: 25.62 pg
MEAN CORPUSCULAR HEMOGLOBIN CONCENTRATION [1]: 40.65 G/DL
MEAN CORPUSCULAR VOLUME [1]: 63 fL
MONOCYTE [1]: 0.5%
NEUTROPHIL [1]: 8.5%
NUCLEATED RED BLOOD CELLS [1]: 0.17 /100WBC
PLATELET COUNT [1]: 1142.83 x10E3/uL
ALANINE AMINOTRANSFERASE [1]: 45.17 u/L
ALBUMIN [1]: 3.78 G/DL
ALKALINE PHOSPHATASE [1]: 340.17 u/L
ASPARTATE AMINOTRANSFERASE [1]: 77.33 u/L
BLOOD UREA NITROGEN [1]: 14.67 mg/dL
CARBON DIOXIDE [1]: 28.67 mmol/L
CHLORIDE [1]: 101.17 MEQ/L
CHOLESTEROL [1]: 77.67 mg/dL
CREATINE PHOSPHOKINASE [1]: 263.67 u/L
CREATININE [1]: 0.15 mg/dL
GLUCOSE [1]: 169.33 mg/dL
LACTATE DEHYDROGENASE [1]: 230 u/L
LIPASE [1]: 9.67 u/L
PHOSPHORUS [1]: 11.8 mg/dL
POTASSIUM [1]: 5.91 MEQ/L
SODIUM [1]: 142.88 MEQ/L
TOTAL BILIRUBIN [1]: 0.22 mg/dL
TOTAL PROTEIN [1]: 5.7 G/DL
URIC ACID [1]: 1.35 mg/dL
ABSOLUTE BASOPHIL [2]: 0 CELLS/uL
ABSOLUTE EOSINOPHIL [2]: 125 CELLS/uL
ABSOLUTE LYMPHOCYTE [2]: 13809 CELLS/uL
ABSOLUTE MONOCYTE [2]: 351 CELLS/uL
ABSOLUTE SEGMENTED NEUTROPHIL [2]: 1581.67 CELLS/uL
BASOPHIL [2]: 0%
EOSINOPHIL [2]: 0.67%
ERYTHROCYTE COUNT [2]: 5.53 x10E6/uL
HEMATOCRIT [2]: 34.83%
HEMOGLOBIN [2]: 13.9 G/DL
LEUKOCYTE COUNT [2]: 15.87 x10E3/uL
LYMPHOCYTE [2]: 87.5%
MEAN CORPUSCULAR HEMOGLOBIN [2]: 25.25 pg
MEAN CORPUSCULAR HEMOGLOBIN CONCENTRATION [2]: 40.08 G/DL
MEAN CORPUSCULAR VOLUME [2]: 63.05 fL
MONOCYTE [2]: 2.17%
NEUTROPHIL [2]: 9.67%
NUCLEATED RED BLOOD CELLS [2]: 0 /100WBC
PLATELET COUNT [2]: 1044 x10E3/uL
ALANINE AMINOTRANSFERASE [2]: 50.67 u/L
ALBUMIN [2]: 4.33 G/DL
ALKALINE PHOSPHATASE [2]: 395 u/L
ASPARTATE AMINOTRANSFERASE [2]: 86 u/L
BLOOD UREA NITROGEN [2]: 15.33 mg/dL
CARBON DIOXIDE [2]: 29.33 mmol/L
CHLORIDE [2]: 101.5 MEQ/L
CHOLESTEROL [2]: 71.33 mg/dL
CREATINE PHOSPHOKINASE [2]: 323.17 u/L
CREATININE [2]: 0.18 mg/dL
GLUCOSE [2]: 145.67 mg/dL
LACTATE DEHYDROGENASE [2]: 389.5 u/L
LIPASE [2]: 9.83 u/L
PHOSPHORUS [2]: 11.35 mg/dL
POTASSIUM [2]: 6.39 MEQ/L
SODIUM [2]: 142.77 MEQ/L
TOTAL BILIRUBIN [2]: 0.18 mg/dL
TOTAL PROTEIN [2]: 6.1 G/DL
URIC ACID [2]: 1.52 mg/dL
ABSOLUTE BASOPHIL [3]: 0 CELLS/uL
ABSOLUTE EOSINOPHIL [3]: 0 CELLS/uL
ABSOLUTE LYMPHOCYTE [3]: 12480 CELLS/uL
ABSOLUTE MONOCYTE [3]: 82.67 CELLS/uL
ABSOLUTE SEGMENTED NEUTROPHIL [3]: 1104 CELLS/uL
BASOPHIL [3]: 0%
EOSINOPHIL [3]: 0%
ERYTHROCYTE COUNT [3]: 5.25 x10E6/uL
HEMATOCRIT [3]: 34.27%
HEMOGLOBIN [3]: 13.87 G/DL
LEUKOCYTE COUNT [3]: 13.67 x10E3/uL
LYMPHOCYTE [3]: 91.33%
MEAN CORPUSCULAR HEMOGLOBIN [3]: 26.43 pg
MEAN CORPUSCULAR HEMOGLOBIN CONCENTRATION [3]: 40.47 G/DL
MEAN CORPUSCULAR VOLUME [3]: 65.23 fL
MONOCYTE [3]: 0.67%
NEUTROPHIL [3]: 8%
NUCLEATED RED BLOOD CELLS [3]: 0.33 /100WBC
PLATELET COUNT [3]: 1224 x10E3/uL
ALANINE AMINOTRANSFERASE [3]: 48.67 u/L
ALBUMIN [3]: 3.73 G/DL
ALKALINE PHOSPHATASE [3]: 327 u/L
ASPARTATE AMINOTRANSFERASE [3]: 72 u/L
BLOOD UREA NITROGEN [3]: 14 mg/dL
CARBON DIOXIDE [3]: 31.33 mmol/L
CHLORIDE [3]: 100.67 MEQ/L
CHOLESTEROL [3]: 75.67 mg/dL
CREATINE PHOSPHOKINASE [3]: 181.67 u/L
CREATININE [3]: 0.14 mg/dL
GLUCOSE [3]: 154 mg/dL
LACTATE DEHYDROGENASE [3]: 151.67 u/L
LIPASE [3]: 10 u/L
PHOSPHORUS [3]: 12.13 mg/dL
POTASSIUM [3]: 7.17 MEQ/L
SODIUM [3]: 142.87 MEQ/L
TOTAL BILIRUBIN [3]: 0.17 mg/dL
TOTAL PROTEIN [3]: 5.53 G/DL
URIC ACID [3]: 1.63 mg/dL
ABSOLUTE BASOPHIL [4]: 0 CELLS/uL
ABSOLUTE EOSINOPHIL [4]: 0 CELLS/uL
ABSOLUTE LYMPHOCYTE [4]: 10640.67 CELLS/uL
ABSOLUTE MONOCYTE [4]: 292.67 CELLS/uL
ABSOLUTE SEGMENTED NEUTROPHIL [4]: 1133.33 CELLS/uL
BASOPHIL [4]: 0%
EOSINOPHIL [4]: 0%
ERYTHROCYTE COUNT [4]: 5.57 x10E6/uL
HEMATOCRIT [4]: 35.5%
HEMOGLOBIN [4]: 14.37 G/DL
LEUKOCYTE COUNT [4]: 12.07 x10E3/uL
LYMPHOCYTE [4]: 88.67%
MEAN CORPUSCULAR HEMOGLOBIN [4]: 25.77 pg
MEAN CORPUSCULAR HEMOGLOBIN CONCENTRATION [4]: 40.47 G/DL
MEAN CORPUSCULAR VOLUME [4]: 63.8 fL
MONOCYTE [4]: 2.33%
NEUTROPHIL [4]: 9%
NUCLEATED RED BLOOD CELLS [4]: 0 /100WBC
PLATELET COUNT [4]: 1349.67 x10E3/uL
ALANINE AMINOTRANSFERASE [4]: 45 u/L
ALBUMIN [4]: 4.53 G/DL
ALKALINE PHOSPHATASE [4]: 393.33 u/L
ASPARTATE AMINOTRANSFERASE [4]: 72 u/L
BLOOD UREA NITROGEN [4]: 14.67 mg/dL
CARBON DIOXIDE [4]: 33 mmol/L
CHLORIDE [4]: 101 MEQ/L
CHOLESTEROL [4]: 75 mg/dL
CREATINE PHOSPHOKINASE [4]: 138.67 u/L
CREATININE [4]: 0.19 mg/dL
GLUCOSE [4]: 156.33 mg/dL
LACTATE DEHYDROGENASE [4]: 85.67 u/L
LIPASE [4]: 10 u/L
PHOSPHORUS [4]: 11.27 mg/dL
POTASSIUM [4]: 6.72 MEQ/L
SODIUM [4]: 144.8 MEQ/L
TOTAL BILIRUBIN [4]: 0.23 mg/dL
TOTAL PROTEIN [4]: 6.3 G/DL
URIC ACID [4]: 1.6 mg/dL
